Reference: PubChem BioAssay (NCI)
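Briefly, cells in 96-well plates were exposed to five compound concentrations for 48 h, and endpoints were estimated by linear interpolation. At the TGI there is no net growth.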

Tests used:
Assay in all cases: growth of human tumour cells (NCI), 48 h
[1] = test system: NCI-H226 lung
[2] = test system: COLO 205 colon
[3] = test system: OVCAR-3 ovarian
[4] = test system: NCI-H23 lung
[5] = test system: SK-MEL-2 melanoma
[6] = test system: UACC-257 melanoma
[7] = test system: LOX IMVI melanoma
[8] = test system: ACHN renal
[9] = test system: HT29 colon
[10] = test system: HL-60(TB) leukemia
[11] = test system: HCC-2998 colon
[12] = test system: SNB-75 CNS
[13] = test system: SK-MEL-28 melanoma
[14] = test system: TK-10 renal
[15] = test system: MOLT-4 leukemia
[16] = test system: SF-268 CNS
[17] = test system: DMS 273 small cell lung
[18] = test system: M19-MEL melanoma
[19] = test system: OVCAR-8 ovarian
[20] = test system: HOP-18 NSCLC
[21] = test system: CAKI-1 renal
[22] = test system: DLD-1 colon
[23] = test system: MALME-3M melanoma
[24] = test system: NCI-H460 lung
[25] = test system: SF-295 CNS
[26] = test system: OVCAR-5 ovarian
[27] = test system: IGROV1 ovarian
[28] = test system: M14 melanoma
[29] = test system: SK-OV-3 ovarian
[30] = test system: SNB-19 CNS
[31] = test system: HOP-92 NSCLC
[32] = test system: RPMI-8226 leukemia
[33] = test system: SF-539 CNS
[34] = test system: HCT-15 colon
[35] = test system: HCT-116 colon
[36] = test system: 786-0 renal
[37] = test system: KM12 colon
[38] = test system: SW-620 colon
[39] = test system: LXFL 529 NSCLC
[40] = test system: A498 renal
[41] = test system: UO-31 renal
[42] = test system: U251 CNS
[43] = test system: UACC-62 melanoma
[44] = test system: K-562 leukemia
[45] = test system: HOP-62 NSCLC
[46] = test system: KM20L2 colon
[47] = test system: CCRF-CEM leukemia
[48] = test system: SNB-78 CNS
[49] = test system: SN12C renal
[50] = test system: SR leukemia
[51] = test system: DMS 114 small cell lung
[52] = test system: OVCAR-4 ovarian
[53] = test system: EKVX NSCLC
[54] = test system: A549 NSCLC
[55] = test system: SK-MEL-5 melanoma
[56] = test system: DU-145 prostate
[57] = test system: HS 578T breast
[58] = test system: XF 498 CNS
[59] = test system: NCI/ADR-RES ovarian
[60] = test system: PC-3 prostate
[61] = test system: MDA-MB-435
[62] = test system: MCF7 breast
[63] = test system: MDA-N
[64] = test system: T-47D breast
[65] = test system: RXF 393 renal
[66] = test system: MDA-MB-231 breast
[67] = test system: NCI-H522 lung
[68] = test system: BT-549 breast

## c1ccc(CN2CCCCC(Sc3ccccc3)CC2)cc1 (stereo not drawn)
[1]
  TGI: 85.2 µM
[2]
  TGI: 26.2 µM
[3]
  TGI: > 100 µM
[4]
  TGI: 64.3 µM
[5]
  TGI: 90.5 µM
[6]
  TGI: > 100 µM
[7]
  TGI: 30.6 µM
[8]
  TGI: > 100 µM
[9]
  TGI: 33.5 µM
[10]
  TGI: 46.3 µM
[11]
  TGI: 29.8 µM
[12]
  TGI: > 100 µM
[13]
  TGI: > 100 µM
[14]
  TGI: > 100 µM
[15]
  TGI: 50.7 µM
[16]
  TGI: > 100 µM
[17]
  TGI: 25.1 µM
[18]
  TGI: 12.9 µM
[19]
  TGI: > 100 µM
[20]
  TGI: > 100 µM
[21]
  TGI: 69.6 µM
[22]
  TGI: 41.7 µM
[23]
  TGI: 38.2 µM
[24]
  TGI: 42.5 µM
[25]
  TGI: > 100 µM
[26]
  TGI: 45.1 µM
[27]
  TGI: > 100 µM
[28]
  TGI: 32 µM
[29]
  TGI: > 100 µM
[30]
  TGI: > 100 µM
[31]
  TGI: 78.8 µM
[32]
  TGI: 38.9 µM
[33]
  TGI: 77.4 µM
[34]
  TGI: 33.5 µM
[35]
  TGI: 43.9 µM
[36]
  TGI: 31.6 µM
[37]
  TGI: > 100 µM
[38]
  TGI: 4.98 µM
[39]
  TGI: 32.6 µM
[40]
  TGI: > 100 µM
[41]
  TGI: 28.8 µM
[42]
  TGI: 31.7 µM
[43]
  TGI: > 100 µM
[44]
  TGI: 35 µM
[45]
  TGI: > 100 µM
[46]
  TGI: 76.3 µM
[47]
  TGI: 43.8 µM
[48]
  TGI: 80.1 µM
[49]
  TGI: 61.8 µM
[50]
  TGI: 37.7 µM
[51]
  TGI: 44.6 µM
[52]
  TGI: > 100 µM
[53]
  TGI: > 100 µM
[54]
  TGI: > 100 µM
[55]
  TGI: 34.1 µM

## CN(C)[C@H]1CC[C@H]2[C@@H]3CCC4C[C@@H](NC(=O)NC(Cc5ccccc5)c5nccs5)CC[C@]4(C)[C@H]3CC[C@]12C (stereo partly drawn)
[1]
  TGI: 3.89 µM
[2]
  TGI: 3.05 µM
[3]
  TGI: 3.43 µM
[4]
  TGI: 3.89 µM
[56]
  TGI: 6.67 µM
[5]
  TGI: 3.41 µM
[6]
  TGI: 3.63 µM
[7]
  TGI: 3.46 µM
[8]
  TGI: 2.86 µM
[9]
  TGI: 1.9 µM
[10]
  TGI: 0.376 µM
[11]
  TGI: 3.16 µM
[14]
  TGI: 3.89 µM
[57]
  TGI: 5.36 µM
[17]
  TGI: 3.86 µM
[58]
  TGI: 2.51 µM
[18]
  TGI: 3.41 µM
[21]
  TGI: 3.11 µM
[23]
  TGI: 3.37 µM
[26]
  TGI: 3.2 µM
[28]
  TGI: 3.23 µM
[29]
  TGI: 3.09 µM
[59]
  TGI: 4.83 µM
[30]
  TGI: 3.74 µM
[31]
  TGI: 2.82 µM
[32]
  TGI: 3.28 µM
[33]
  TGI: 3.37 µM
[34]
  TGI: 2.03 µM
[35]
  TGI: 1.33 µM
[37]
  TGI: 3.44 µM
[39]
  TGI: 1.61 µM
[41]
  TGI: 3.38 µM
[43]
  TGI: 3.46 µM
[60]
  TGI: 2.35 µM
[46]
  TGI: 2.81 µM
[49]
  TGI: 3.36 µM
[50]
  TGI: 4.14 µM
[51]
  TGI: 3.31 µM
[52]
  TGI: 3.18 µM
[55]
  TGI: 3.38 µM

## Cc1c2cc[n+](C)cc2c(C)c2c1[nH]c1ccc(Cl)cc12
[1]
  TGI: 4.57 µM
[2]
  TGI: 10.9 µM
[3]
  TGI: 22.6 µM
[4]
  TGI: 9.12 µM
[56]
  TGI: 30.5 µM
[5]
  TGI: 9.6 µM
[6]
  TGI: 62.3 µM
[7]
  TGI: 77.8 µM
[8]
  TGI: 61.7 µM
[9]
  TGI: 44.9 µM
[61]
  TGI: > 64.4 µM
[10]
  TGI: 21.5 µM
[62]
  TGI: 15.9 µM
[11]
  TGI: 13.8 µM
[12]
  TGI: 1.05 µM
[13]
  TGI: 16.5 µM
[63]
  TGI: > 59.3 µM
[14]
  TGI: 61.3 µM
[57]
  TGI: 0.743 µM
[15]
  TGI: 58.4 µM
[16]
  TGI: 0.831 µM
[17]
  TGI: 35.7 µM
[18]
  TGI: 3.94 µM
[19]
  TGI: 15.5 µM
[64]
  TGI: 14.8 µM
[20]
  TGI: 22.7 µM
[21]
  TGI: 53.4 µM
[22]
  TGI: > 100 µM
[23]
  TGI: 10.4 µM
[24]
  TGI: 54 µM
[25]
  TGI: 4.37 µM
[26]
  TGI: 84.4 µM
[27]
  TGI: 38.2 µM
[28]
  TGI: 40.6 µM
[29]
  TGI: 53.3 µM
[65]
  TGI: 19.1 µM
[59]
  TGI: > 100 µM
[30]
  TGI: 1.21 µM
[31]
  TGI: 26.5 µM
[32]
  TGI: > 95.6 µM
[33]
  TGI: 2.32 µM
[34]
  TGI: > 100 µM
[35]
  TGI: 32.2 µM
[36]
  TGI: 5.76 µM
[37]
  TGI: 35.5 µM
[38]
  TGI: 19.4 µM
[39]
  TGI: 2.59 µM
[40]
  TGI: 1.4 µM
[41]
  TGI: 42.8 µM
[42]
  TGI: 1.15 µM
[43]
  TGI: 45.1 µM
[44]
  TGI: 45.5 µM
[60]
  TGI: > 43.2 µM
[45]
  TGI: 6.95 µM
[46]
  TGI: 46 µM
[47]
  TGI: 26.5 µM
[66]
  TGI: > 47.5 µM
[48]
  TGI: 2.56 µM
[49]
  TGI: 3.42 µM
[50]
  TGI: > 78.1 µM
[67]
  TGI: 2.38 µM
[51]
  TGI: 2.78 µM
[52]
  TGI: 26.5 µM
[68]
  TGI: 4.16 µM
[53]
  TGI: 14.1 µM
[54]
  TGI: 4.15 µM
[55]
  TGI: 5.99 µM

## C=C(Br)C(C)(Br)CCC(Br)C(C)(C)Br (stereo not drawn)
[1]
  TGI: > 100 µM
[2]
  TGI: 35.8 µM
[4]
  TGI: > 100 µM
[5]
  TGI: 55.7 µM
[6]
  TGI: > 100 µM
[7]
  TGI: 31 µM
[8]
  TGI: > 100 µM
[9]
  TGI: > 100 µM
[10]
  TGI: 62.3 µM
[12]
  TGI: 89.2 µM
[13]
  TGI: 46.3 µM
[14]
  TGI: > 100 µM
[15]
  TGI: 94.2 µM
[16]
  TGI: 91 µM
[17]
  TGI: 42.9 µM
[18]
  TGI: 35.8 µM
[19]
  TGI: 33.3 µM
[20]
  TGI: > 100 µM
[21]
  TGI: > 100 µM
[22]
  TGI: > 100 µM
[23]
  TGI: 81.8 µM
[24]
  TGI: > 100 µM
[25]
  TGI: 62 µM
[26]
  TGI: > 100 µM
[27]
  TGI: 39 µM
[28]
  TGI: 61.3 µM
[29]
  TGI: > 100 µM
[65]
  TGI: > 100 µM
[31]
  TGI: 40.6 µM
[32]
  TGI: 58.2 µM
[33]
  TGI: 38.8 µM
[34]
  TGI: > 100 µM
[35]
  TGI: 47.7 µM
[36]
  TGI: 44.5 µM
[37]
  TGI: > 100 µM
[38]
  TGI: 70.9 µM
[39]
  TGI: 45.2 µM
[41]
  TGI: > 100 µM
[42]
  TGI: 38.4 µM
[43]
  TGI: 45.1 µM
[44]
  TGI: > 100 µM
[45]
  TGI: 34.9 µM
[47]
  TGI: 63.5 µM
[48]
  TGI: 70.4 µM
[49]
  TGI: 52.4 µM
[50]
  TGI: 54.7 µM
[67]
  TGI: 28.3 µM
[51]
  TGI: 31.6 µM
[52]
  TGI: > 100 µM
[54]
  TGI: > 100 µM
[55]
  TGI: > 100 µM
